Data from patent US20160109459A1, “Compositions And Methods For Heparan Sulfate As A Biomarker For Transplant Rejection” (Duke University, priority 2012, published 2016).

What was measured:
[1] = tested on: BALB/c DCs; test: DC maturation: surface expression of CD40 and CD80 by FACS; assay type: cell-based, mouse; conditions: 24 h; HS 100 μg/mL, Pam3CSK4 2 μg/mL
Procedure: (§1) FIG. 3A is a graph showing WT, TLR4^−/−, or MyD88^−/− BALB/c DCs (2×10^5/well) were stimulated with LPS (100 ng/mL), HS (100 μg/mL), or Pam3CSK4 (2 μg/mL), or left unstimulated (media) for 24 hours, and measured for surface expression of co-stimulatory molecules CD40 and CD80 by FACS analysis. FIGS. 3B and 3C are graphs showing WT, MyD88^−/−, and TLR4^−/− BALB/c cultured DCs were co-cultured with media alone, LPS, HS, or Pam3CSK4 as in (A) and culture supernatants were tested for IL-6 (B) and IL-12 (C) by ELISA. Data are representative of three independent experiments; *p<0.05 compared with media alone.
To investigate how activation of DCs by HS promoted the alloreactive T cell response, an as DC maturation and production of pro-inflammatory cytokines are key initial events in triggering adaptive immune responses, the ability of HS to upregulate DC expression of costimulatory molecules, CD40 and CD80, and pro-inflammatory cytokines, IL-6 and IL-12 was tested.
Antibodies and flow cytometry: Anti-CD40 (HM40-3), anti-CD80 (16-10A1), anti-Thy1.1 (OX-7), anti-Ly5.1 (A20) anti-IFN-γ (XMG1.2), rat IgG1 isotype (R3-34), and the BrdU Flow Kit (FITC-labeled) were from BD Biosciences (San Jose, Calif., USA). Intracellular IFN-γ staining was performed as previously described. (Brennan, T. V. et al. (2008) Transplantation 85:247-55). For in vivo BrdU labeling, mice were injected with 50 μg BrdU/gm i.p. 1 hour prior to analysis. Collection of flow cytometric data was acquired using a FACSCanto (BD Biosciences), and events were analyzed using FloJo software (Tree Star, Inc., Ashland, United States).

[2] = tested on: BALB/c DCs; test: DC production of pro-inflammatory cytokines by ELISA; assay type: cell-based, mouse
Procedure: as §1
Lethally irradiated BALB/c recipients received either 1×10^7 B10.D2 TCD-BM only (Allo-BM), 1×10^7 B10.D2 TCD-BM and 5×10^6 B10.D2 LCs (Allo-BM+LC), or 1×10^7 BALB/c TCD-BM and 5×10^6 BALB/c LCs (Syn-BM+LC). FIG. 6A is a graph showing HS concentrations following transplantation as determined by ELISA at the indicated time points; n=2-5 samples per time point; *p<0.05 comparing Allo-BM+LC and Allo-BM at the indicated time point. FIG. 6B is a graph showing the half maximal effective concentration (EC50) of HS on DC stimulation, BALB/c DCs (2×10^5/well) following 24 hr of culture with differing concentrations of HS in triplicate and IL-6 production was tested by ELISA. Results are representative of three independent experiments.
FIG. 13 is a graph showing WT, MyD88^−/−, and TLR4^−/− BALB/c cultured DCs that were co-cultured with media alone, LPS, HS, or Pam3CSK4 and tested for TNF-α as determined by ELISA assay.
Cytokine analysis: Cell culture supernatants were obtained from DC cultures or T cell proliferation assays and assayed for IL-6, IL-12 and IFN-γ by ELISA (BD Biosciences) according to the manufacturer's standard protocols. HEK 293 supernatants were tested for human IL-8 by ELISA (BioLegend, San Diego, United States).
To determine if the in vivo concentrations of HS were sufficient to cause DC activation, the production of IL-6 by cultured DCs in response to a range of HS concentrations was tested (FIG. 6B).

[3] = molecular target: T1, human TLR4 (Homo sapiens, UniProt O00206); test: NF-κB dual luciferase reporter assay in HEK TLR4-MD2-CD14 cells; assay type: cell-based; conditions: HS 100 μg/mL, 6 hours, TLR4 expressing cell lines
T1 construct: expressed in transfected cells; host or cells: HEK 293 (gift from Dr. Michael Fessler, NIEHS)
T1 sequence (O00206 24-839): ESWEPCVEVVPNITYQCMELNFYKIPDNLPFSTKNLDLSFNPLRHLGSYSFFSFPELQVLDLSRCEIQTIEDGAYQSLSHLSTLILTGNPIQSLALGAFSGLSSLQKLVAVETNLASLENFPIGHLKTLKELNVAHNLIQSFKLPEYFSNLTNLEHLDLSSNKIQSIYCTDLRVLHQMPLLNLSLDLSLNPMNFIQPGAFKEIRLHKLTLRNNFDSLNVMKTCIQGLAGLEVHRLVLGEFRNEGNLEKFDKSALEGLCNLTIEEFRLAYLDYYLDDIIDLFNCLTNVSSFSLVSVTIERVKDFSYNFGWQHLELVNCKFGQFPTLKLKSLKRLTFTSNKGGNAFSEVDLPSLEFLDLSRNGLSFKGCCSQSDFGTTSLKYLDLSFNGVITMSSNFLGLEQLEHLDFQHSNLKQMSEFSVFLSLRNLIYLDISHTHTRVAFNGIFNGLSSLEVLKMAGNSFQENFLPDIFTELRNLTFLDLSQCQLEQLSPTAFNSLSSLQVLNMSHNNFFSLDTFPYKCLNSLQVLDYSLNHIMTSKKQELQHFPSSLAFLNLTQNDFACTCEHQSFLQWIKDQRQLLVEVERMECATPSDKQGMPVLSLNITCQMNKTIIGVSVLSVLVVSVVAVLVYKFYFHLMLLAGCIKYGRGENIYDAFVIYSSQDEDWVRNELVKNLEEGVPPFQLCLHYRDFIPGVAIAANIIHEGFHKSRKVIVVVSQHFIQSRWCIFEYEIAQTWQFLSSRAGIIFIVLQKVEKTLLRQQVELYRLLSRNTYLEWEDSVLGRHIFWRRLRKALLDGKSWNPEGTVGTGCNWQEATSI
T1 sequence (Q9Y6Y9 17-160 partner limits assumed): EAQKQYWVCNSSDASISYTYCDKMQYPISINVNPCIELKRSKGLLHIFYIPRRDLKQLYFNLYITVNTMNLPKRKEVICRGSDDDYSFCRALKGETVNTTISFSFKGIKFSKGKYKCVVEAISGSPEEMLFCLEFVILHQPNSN
Procedure: HEK cell lines stably expressing CD14 and MD2 alone (HEK MD2-CD14), or co-expressed with human TLR2 (HEK TLR2-MD2-CD14) or human TLR4 (HEK TLR4-MD2-CD14) were transfected with a plasmid encoding firefly luciferase (F) under control of the NF-κB promoter along with a plasmid expressing Renilla luciferase (R) under control of the thymidine kinase promoter as a transfection control. Cell lines were cultured for 6 hours with media alone, LPS (100 ng/mL), HS (100 μg/mL), or Pam3CSK4 (2 μg/mL). FIG. 5A is a graph showing the ratio of F/R was measured by dual luciferase reporter assay to determine NF-κB activation of lysed cells, *p<0.05 compared with media alone. FIG. 5B is a graph showing results supernatants analyzed for IL-8 production by ELISA. […]
Luciferase reporter assay: Luciferase activity was measured using the Dual-Luciferase Reporter Assay (Promega, Madison, Wis., USA) according to the manufacture's recommended protocol. Luminescence was measured using an LMax Luminometer (Molecular Devices, Sunnyvale, United States).
A heterodimer of different TLRs is required for some PAMPs. […] The ratio of luminescence produced by firefly luciferase to Renilla luciferase (F/R) was then measured in response to media alone, LPS, HS, and Pam3CSK4. The production of IL-8, which is downstream of NF-κB activation, by ELISA was also measured. […]

[4] = BALB/c DCs 2×10^5/well, 24 hr culture

half maximal effective concentration (EC50) on DC stimulation (IL-6 production) [2, 4]: approximately 4 μg/mL
NF-κB activation (ratio F/R) [3]: caused NF-κB activation
Substance: heparan sulfate [HS]
upregulation of CD40 and CD80 on WT DCs [1]: upregulation
concentration achieving maximal response (IL-6 production by DCs) [2, 4]: 12.5 µg/mL
production of IL-6 and IL-12 from TLR4−/− or MyD88−/− DCs ([2]; HS 100 μg/mL, 24 h): but not from TLR4^−/− or MyD88^−/− DCs
production of IL-6 and IL-12 from WT DCs ([2]; HS 100 μg/mL, 24 h, not inhibited by PMB): stimulated DCs to produce
DC expression of TNF-α ([2]; TLR4- and MyD88-dependent): up-regulate
